Assays:
Assay in all cases: biochemical
Parameters in all cases: KINOMEscan active-site-directed competition binding panel, 468 kinases, percent of DMSO control at 1 uM
Conditions in all cases: KINOMEscan binding, percent of DMSO control; read-out: Ctrl%
GAK = GAK (Homo sapiens, UniProt O14976)
PLK4 = PLK4 (Homo sapiens, UniProt O00444)
MYLK = MYLK (Homo sapiens, UniProt Q15746)
PIP5K1C = PIP5K1C (Homo sapiens, UniProt O60331)
S6K1 = biological target: T1, S6K1 (Homo sapiens, UniProt P23443)
T1 construct: gene RPS6KB1
T1 sequence (P23443 whole entry): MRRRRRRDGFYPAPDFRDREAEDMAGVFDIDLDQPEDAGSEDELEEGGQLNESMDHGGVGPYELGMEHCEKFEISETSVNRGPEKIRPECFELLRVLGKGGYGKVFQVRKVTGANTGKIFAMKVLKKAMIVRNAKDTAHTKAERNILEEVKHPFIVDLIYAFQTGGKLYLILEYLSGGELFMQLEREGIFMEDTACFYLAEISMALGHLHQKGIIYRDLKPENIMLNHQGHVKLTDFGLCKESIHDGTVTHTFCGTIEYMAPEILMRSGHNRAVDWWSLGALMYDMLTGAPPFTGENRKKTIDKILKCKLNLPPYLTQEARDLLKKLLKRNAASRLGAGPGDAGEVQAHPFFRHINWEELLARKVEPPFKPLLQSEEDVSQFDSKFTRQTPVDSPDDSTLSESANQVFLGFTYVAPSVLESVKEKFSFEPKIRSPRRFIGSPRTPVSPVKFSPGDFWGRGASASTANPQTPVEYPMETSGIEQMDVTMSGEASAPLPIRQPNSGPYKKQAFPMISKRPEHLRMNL

[1] = biological target: T2, ABL1(H396P)-nonphosphorylated (Homo sapiens, UniProt P00519, H396P)
T2 construct: nonphosphorylated

RET(V804M) = RET(V804M) (Homo sapiens, UniProt P07949, V804M)
AMPK-alpha1 = biological target: T3, AMPK-alpha1 (Homo sapiens, UniProt Q13131)
T3 construct: gene PRKAA1

LATS2 = LATS2 (Homo sapiens, UniProt Q9NRM7)
IKK-beta = biological target: T4, IKK-beta (Homo sapiens, UniProt O14920)
T4 construct: gene IKBKB
T4 sequence (O14920 whole entry): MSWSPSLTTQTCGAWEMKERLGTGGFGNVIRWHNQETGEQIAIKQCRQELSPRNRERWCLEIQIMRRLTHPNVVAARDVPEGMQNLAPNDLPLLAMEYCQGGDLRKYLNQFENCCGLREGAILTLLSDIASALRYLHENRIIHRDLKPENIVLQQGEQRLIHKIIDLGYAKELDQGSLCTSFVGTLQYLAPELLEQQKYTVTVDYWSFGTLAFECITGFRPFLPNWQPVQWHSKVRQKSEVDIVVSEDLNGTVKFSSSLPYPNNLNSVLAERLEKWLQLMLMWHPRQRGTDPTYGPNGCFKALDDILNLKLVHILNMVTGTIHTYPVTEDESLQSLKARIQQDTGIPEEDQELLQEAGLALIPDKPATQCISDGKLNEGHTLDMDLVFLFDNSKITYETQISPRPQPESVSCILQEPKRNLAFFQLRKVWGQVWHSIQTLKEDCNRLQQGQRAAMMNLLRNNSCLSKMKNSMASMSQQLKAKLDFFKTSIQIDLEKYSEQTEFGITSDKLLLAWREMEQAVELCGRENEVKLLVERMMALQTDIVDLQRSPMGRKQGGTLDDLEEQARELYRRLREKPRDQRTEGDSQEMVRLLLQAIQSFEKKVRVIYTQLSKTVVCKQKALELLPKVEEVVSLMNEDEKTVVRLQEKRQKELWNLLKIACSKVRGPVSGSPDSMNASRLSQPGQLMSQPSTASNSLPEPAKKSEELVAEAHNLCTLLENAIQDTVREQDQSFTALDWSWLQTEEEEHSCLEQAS

IKK-epsilon = biological target: T5, IKK-epsilon (Homo sapiens, UniProt Q14164)
T5 construct: gene IKBKE

[2] = biological target: T6, ABL1(F317L)-nonphosphorylated (Homo sapiens, UniProt P00519, F317L)
T6 construct: nonphosphorylated

AAK1 = AAK1 (Homo sapiens, UniProt Q2M2I8)
CLK2 = CLK2 (Homo sapiens, UniProt P49760)
Sequence of CLK2 (P49760 whole entry): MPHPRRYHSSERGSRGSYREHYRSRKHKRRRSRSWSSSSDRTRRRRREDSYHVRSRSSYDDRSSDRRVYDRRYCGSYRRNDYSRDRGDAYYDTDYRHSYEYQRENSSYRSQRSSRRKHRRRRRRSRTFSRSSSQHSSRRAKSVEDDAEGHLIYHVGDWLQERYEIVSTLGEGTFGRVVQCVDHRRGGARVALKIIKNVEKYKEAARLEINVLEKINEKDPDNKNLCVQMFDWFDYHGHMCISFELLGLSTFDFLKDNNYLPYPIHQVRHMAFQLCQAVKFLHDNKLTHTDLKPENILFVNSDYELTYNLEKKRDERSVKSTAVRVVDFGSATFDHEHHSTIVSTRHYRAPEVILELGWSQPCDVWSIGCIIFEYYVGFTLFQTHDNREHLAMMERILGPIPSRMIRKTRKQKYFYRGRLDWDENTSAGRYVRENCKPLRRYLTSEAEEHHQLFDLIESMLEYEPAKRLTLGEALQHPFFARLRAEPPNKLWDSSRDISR

SRC = SRC (Homo sapiens, UniProt P12931)
FLT3(ITD,D835V) = FLT3(ITD,D835V) (Homo sapiens, UniProt P36888, D835V/ITD)
FGFR2 = FGFR2 (Homo sapiens, UniProt P21802)
SIK2 = SIK2 (Homo sapiens, UniProt Q9H0K1)
BMPR1B = BMPR1B (Homo sapiens, UniProt O00238)
CSF1R = CSF1R (Homo sapiens, UniProt P07333)
AMPK-alpha2 = biological target: T7, AMPK-alpha2 (Homo sapiens, UniProt P54646)
T7 construct: gene PRKAA2

BMPR1A = BMPR1A (Homo sapiens, UniProt P36894)
[3] = biological target: EGFR(L747-E749del, A750P) (Homo sapiens, UniProt P00533, A750P/DEL747-749)

Sequence of PLK4 (O00444 whole entry): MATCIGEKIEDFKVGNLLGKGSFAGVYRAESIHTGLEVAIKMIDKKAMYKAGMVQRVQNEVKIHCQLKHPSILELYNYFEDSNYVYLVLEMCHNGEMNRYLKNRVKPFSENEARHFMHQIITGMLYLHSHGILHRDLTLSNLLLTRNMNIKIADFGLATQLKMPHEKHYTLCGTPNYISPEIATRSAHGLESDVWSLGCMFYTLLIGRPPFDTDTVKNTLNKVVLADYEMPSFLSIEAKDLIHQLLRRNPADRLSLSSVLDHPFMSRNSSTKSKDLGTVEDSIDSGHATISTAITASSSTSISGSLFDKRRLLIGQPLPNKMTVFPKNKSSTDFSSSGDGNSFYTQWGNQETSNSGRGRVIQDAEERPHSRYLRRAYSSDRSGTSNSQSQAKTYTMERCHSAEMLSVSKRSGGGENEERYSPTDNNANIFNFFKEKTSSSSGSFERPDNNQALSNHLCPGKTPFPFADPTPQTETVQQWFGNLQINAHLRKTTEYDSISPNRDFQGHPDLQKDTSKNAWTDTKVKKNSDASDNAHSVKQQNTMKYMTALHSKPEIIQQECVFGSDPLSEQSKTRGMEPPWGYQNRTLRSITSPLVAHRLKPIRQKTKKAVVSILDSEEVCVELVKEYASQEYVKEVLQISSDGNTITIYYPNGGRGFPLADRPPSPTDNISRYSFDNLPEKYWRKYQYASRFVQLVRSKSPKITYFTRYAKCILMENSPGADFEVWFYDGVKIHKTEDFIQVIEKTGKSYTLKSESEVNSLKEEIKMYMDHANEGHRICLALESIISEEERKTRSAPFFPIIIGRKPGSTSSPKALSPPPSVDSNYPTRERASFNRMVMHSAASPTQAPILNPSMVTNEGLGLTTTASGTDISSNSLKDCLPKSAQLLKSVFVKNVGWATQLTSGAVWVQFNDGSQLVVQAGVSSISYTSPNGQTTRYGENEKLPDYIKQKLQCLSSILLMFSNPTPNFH
Sequence of GAK (O14976 whole entry): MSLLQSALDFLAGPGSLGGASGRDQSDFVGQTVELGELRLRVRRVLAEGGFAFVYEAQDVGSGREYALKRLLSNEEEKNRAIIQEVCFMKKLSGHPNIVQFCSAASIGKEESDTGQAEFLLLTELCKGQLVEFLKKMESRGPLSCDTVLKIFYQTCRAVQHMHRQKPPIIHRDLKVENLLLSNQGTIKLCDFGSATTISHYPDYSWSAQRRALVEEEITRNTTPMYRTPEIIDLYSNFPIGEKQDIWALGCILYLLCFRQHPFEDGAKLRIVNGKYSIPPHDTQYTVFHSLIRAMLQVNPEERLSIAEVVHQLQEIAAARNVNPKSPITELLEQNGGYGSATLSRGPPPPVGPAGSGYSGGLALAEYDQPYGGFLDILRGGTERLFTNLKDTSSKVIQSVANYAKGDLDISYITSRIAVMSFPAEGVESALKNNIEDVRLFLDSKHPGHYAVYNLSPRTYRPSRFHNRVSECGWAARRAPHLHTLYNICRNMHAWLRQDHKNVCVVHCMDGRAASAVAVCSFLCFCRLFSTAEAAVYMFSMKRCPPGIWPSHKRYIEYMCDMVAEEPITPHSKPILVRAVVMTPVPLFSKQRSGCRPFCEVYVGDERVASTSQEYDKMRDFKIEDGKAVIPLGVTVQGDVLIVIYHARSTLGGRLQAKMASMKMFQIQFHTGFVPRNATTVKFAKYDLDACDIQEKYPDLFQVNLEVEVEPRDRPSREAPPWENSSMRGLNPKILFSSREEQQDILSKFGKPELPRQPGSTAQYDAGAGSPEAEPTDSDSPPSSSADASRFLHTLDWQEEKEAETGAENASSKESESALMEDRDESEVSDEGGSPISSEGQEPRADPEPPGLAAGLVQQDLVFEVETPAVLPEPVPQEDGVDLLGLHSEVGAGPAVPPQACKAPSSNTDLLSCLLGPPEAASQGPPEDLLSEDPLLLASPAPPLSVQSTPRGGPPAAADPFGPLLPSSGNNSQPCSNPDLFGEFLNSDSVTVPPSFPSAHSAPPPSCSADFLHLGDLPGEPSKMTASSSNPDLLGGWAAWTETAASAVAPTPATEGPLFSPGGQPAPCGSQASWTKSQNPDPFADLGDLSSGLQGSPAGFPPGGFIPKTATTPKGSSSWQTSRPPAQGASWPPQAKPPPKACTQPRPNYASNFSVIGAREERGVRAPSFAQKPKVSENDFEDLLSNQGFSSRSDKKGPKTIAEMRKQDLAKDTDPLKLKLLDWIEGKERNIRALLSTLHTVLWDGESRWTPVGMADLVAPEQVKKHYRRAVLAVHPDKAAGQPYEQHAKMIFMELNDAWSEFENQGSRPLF
Sequence of PIP5K1C (O60331 whole entry): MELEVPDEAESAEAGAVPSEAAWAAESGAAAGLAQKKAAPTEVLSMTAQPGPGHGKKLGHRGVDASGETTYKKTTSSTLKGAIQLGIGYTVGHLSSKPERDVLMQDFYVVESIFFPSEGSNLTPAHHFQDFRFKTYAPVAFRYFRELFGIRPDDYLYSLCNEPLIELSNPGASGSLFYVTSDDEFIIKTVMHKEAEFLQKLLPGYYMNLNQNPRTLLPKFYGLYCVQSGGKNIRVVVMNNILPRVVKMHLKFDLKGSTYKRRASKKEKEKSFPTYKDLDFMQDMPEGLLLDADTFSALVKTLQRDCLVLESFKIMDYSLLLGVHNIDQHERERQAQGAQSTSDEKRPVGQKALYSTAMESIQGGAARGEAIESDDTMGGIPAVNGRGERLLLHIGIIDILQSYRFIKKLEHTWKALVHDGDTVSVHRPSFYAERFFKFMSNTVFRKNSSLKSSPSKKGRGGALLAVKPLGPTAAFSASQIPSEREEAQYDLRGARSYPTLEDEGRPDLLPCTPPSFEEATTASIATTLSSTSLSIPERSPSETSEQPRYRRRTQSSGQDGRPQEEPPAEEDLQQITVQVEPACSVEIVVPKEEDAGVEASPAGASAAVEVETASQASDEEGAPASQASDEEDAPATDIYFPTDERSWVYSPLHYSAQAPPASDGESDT

## Cc1ccc(NC(=O)c2cccc(C(F)(F)F)c2)cc1Nc1cc(-c2cccnc2)nc2[nH]ccc12 [HZX-02-059]
GAK
  remaining binding at 1 µM: 91%
PLK4
  remaining binding at 1 µM: 91%
MYLK
  remaining binding at 1 µM: 100%
PIP5K1C
  remaining binding at 1 µM: 73%
S6K1
  remaining binding at 1 µM: 95%
[1]
  remaining binding at 1 µM: 55%
RET(V804M)
  remaining binding at 1 µM: 95%
AMPK-alpha1
  remaining binding at 1 µM: 97%
LATS2
  remaining binding at 1 µM: 67%
IKK-beta
  remaining binding at 1 µM: 100%
IKK-epsilon
  remaining binding at 1 µM: 70%
[2]
  remaining binding at 1 µM: 60%
AAK1
  remaining binding at 1 µM: 87%
CLK2
  remaining binding at 1 µM: 92%
SRC
  remaining binding at 1 µM: 78%
FLT3(ITD,D835V)
  remaining binding at 1 µM: 100%
FGFR2
  remaining binding at 1 µM: 95%
SIK2
  remaining binding at 1 µM: 87%
BMPR1B
  remaining binding at 1 µM: 91%
CSF1R
  remaining binding at 1 µM: 6.1%
AMPK-alpha2
  remaining binding at 1 µM: 90%
BMPR1A
  remaining binding at 1 µM: 69%
[3]
  remaining binding at 1 µM: 77%

— article PMC8799717, “Pharmacological targeting PIKfyve and tubulin as an effective treatment strategy for double-hit lymphoma” (Cell Death Discovery, 2022)
